Target: T1, ObiH (Pseudomonas fluorescens, UniProt A0A1X9LWZ7)
T1 sequence (A0A1X9LWZ7 1-440): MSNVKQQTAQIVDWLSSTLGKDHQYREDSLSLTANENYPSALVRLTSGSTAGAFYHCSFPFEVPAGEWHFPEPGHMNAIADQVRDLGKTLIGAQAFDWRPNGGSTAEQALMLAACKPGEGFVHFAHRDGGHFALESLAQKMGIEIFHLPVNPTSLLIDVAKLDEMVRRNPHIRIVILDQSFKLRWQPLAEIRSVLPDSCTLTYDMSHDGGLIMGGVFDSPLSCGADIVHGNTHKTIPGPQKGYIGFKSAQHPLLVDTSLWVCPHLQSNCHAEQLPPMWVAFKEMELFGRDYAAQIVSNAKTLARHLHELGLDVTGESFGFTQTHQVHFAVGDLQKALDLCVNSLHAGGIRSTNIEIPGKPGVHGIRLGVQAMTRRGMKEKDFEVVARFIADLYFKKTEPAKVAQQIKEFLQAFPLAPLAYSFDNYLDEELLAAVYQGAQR
Experiment: UV-vis titration of quinonoid at […] nm
Type: binding

Work on `CC=O` [acetaldehyde] yielded a Kd of 430 ± 15 µM.
